Test results published in US20150230462A1, “METHODS FOR IMPROVING GERMINATION AND STRESS TOLERANCE CHARACTERISTICS WITH JASMONATES” (New Biology, Inc., priority 2014, published 2015).
Entries after “also recorded” stand apart in the source; their conditions may differ.

Assays:
Sugar snap pea seeds = Sugar snap pea seeds treated with MDHJ soak solutions with wetting agent: seeds germinated (Example 3); format: in vivo
Method: Non-germinated seeds of the hybrid corn varietal “Early Sun Glow” were treated with MDHJ by soaking for 24 hours in 50 mL conical vessels in one of four treatment solutions. During the soak, the seeds spent 12 hours in typical lighting conditions and 12 hours in darkness. The four treatment solutions are set forth below in Table 5. In Table 5, COCO-WET® is a wetting agent sold by Spray-N-Grow, Inc. of Rockport, Tex. On Day 2, 4 2-inch pots were planted with three seeds each, for a total of 12 seeds per treatment. Germination of the potted seeds was measured at days 8 and 15. Sugar snap pea seeds were treated according to the procedure in Example 2. The number of seeds germinated were counted at days 8 and 15 after treatment.

[1] = tested on: Seeds of Redina lettuce (Lechuga redina); assay: Redina lettuce seeds treated with MDHJ soak solutions with wetting agent (Example 4); format: in vivo
Method: Non-germinated seeds of the hybrid corn varietal “Early Sun Glow” were treated with MDHJ by soaking for 24 hours in 50 mL conical vessels in one of four treatment solutions. During the soak, the seeds spent 12 hours in typical lighting conditions and 12 hours in darkness. The four treatment solutions are set forth below in Table 5. In Table 5, COCO-WET® is a wetting agent sold by Spray-N-Grow, Inc. of Rockport, Tex.
Seeds of Redina lettuce (Lechuga redina) were treated with MDHJ according to the protocol of Example 2.

[2] = tested on: Seeds of tomato (‘Crimson Carmello’); assay: Germinating tomato seeds soaked 1 hour in MDHJ: percent germination, radicle length (Example 26); format: in vivo; conditions: for Percent of Tomato Seeds Germinated, Day 5 / Percent of Tomato Seeds Germinated, Day 7: 1 hour soak of germinating seeds
Method: Seeds of tomato (‘Crimson Carmello’) were soaked in water for 24 hours. After 24 hours, seeds were transferred to a solution containing water only (untreated control or UTC), 0.05 mM MDHJ, or 0.5 mM MDHJ in water. There were 8-9 seeds per treatment. After soaking for 1 hour, the seeds were rinsed in water and placed between two layers of water-moistened paper towel in a clear plastic covered tray. The trays were placed at room temperature with normal daylight conditions and allowed to germinate. At day 5 and 7, the percent of germinated seeds was obtained. At days 5 and 7, radicle length was measured in tomato seedlings (no coleoptiles were showing yet). At Day 5 and 7, radicle length was measured in millimeters.

[3] = tested on: Seeds of wheat (Triticum aestivum ‘Liquid Sunshine’); assay: Germinating wheat seeds soaked 1 hour in MDHJ: percent germination, coleoptile length (Example 27); format: in vivo; conditions: for Percent of Wheat Seeds Germinated at Day 7: 1 hour soak after 24 hours in water
Method: Seeds of wheat (Triticum aestivum ‘Liquid Sunshine’) were soaked in water for 24 hours. After 24 hours, seeds were transferred to a solution containing water only (untreated control or UTC), 0.05 mM MDHJ, 0.5 mM MDHJ, or 5.0 mM MDHJ in water. There were 16-20 seeds per treatment. After soaking for 1 hour, the seeds were rinsed in water and placed between two layers of water-moistened paper towel in a clear plastic covered tray. The trays were placed at room temperature with normal daylight conditions and allowed to germinate. At day 7, the percent of germinated seeds was obtained and coleoptile length was measured.

[4] = tested on: swiss chard (‘Peppermint Stick’) seeds; assay: Germinating swiss chard seeds (48 hours water soak) soaked 1 hour in MDHJ: germination at Day 6 (Example 28); format: in vivo; conditions: for Percent of Seeds Germinated at Day 6, Swiss Chard: 1 hour soak after 48 hours in water
Method: (§1) Seeds of wheat (Triticum aestivum ‘Liquid Sunshine’), corn (‘Sugar Pearl’) and swiss chard (‘Peppermint Stick’) were soaked in water for 48 hours, immediately followed by a 1 hour soak in no MDHJ (untreated control, or UTC), 1.5 mM MDHJ or 7.5 mM MDHJ. Seeds were then rinsed and placed between sheets of moistened paper towel and surrounded by a saran wrap tent to keep the germinating environment moist. There were 13-25 seeds for each treatment of each plant. At Day 6, seed germination was measured for each plant.

[5] = tested on: corn (‘Sugar Pearl’) seeds; assay: Germinating corn seeds (48 hours water soak) soaked 1 hour in MDHJ: germination at Day 6 (Example 28); format: in vivo; conditions: for Percent of Seeds Germinated at Day 6, Corn: 1 hour soak after 48 hours in water
Method: as §1

[6] = tested on: wheat (Triticum aestivum ‘Liquid Sunshine’) seeds; assay: Germinating wheat seeds (48 hours water soak) soaked 1 hour in MDHJ: germination at Day 6 (Example 28); format: in vivo; conditions: for Percent of Seeds Germinated at Day 6, Wheat: 1 hour soak after 48 hours in water
Method: as §1

[7] = tested on: Seeds of corn (‘Sugar Pearl’); assay: Planted germinating corn seeds, soil sprayed with MDHJ: seedling emergence and plant height (Example 29); format: in vivo; conditions: for Percent Seedling Emergence: 12.5 ml/pot sprayed on soil two days after planting, 21 days after planting, n=16
Method: Seeds of corn (‘Sugar Pearl’) were soaked in water for 48 hours and subsequently planted 1-inch deep in potting soil in 6-inch pots. Two days after planting, the soil was sprayed with 12.5 ml/pot of 0 mM (UTC), 0.75 mM or 7.5 mM MDHJ. There were 8 seeds planted per pot and two pots for each treatment (n=16). Germination was recorded 21 days after planting, and plant height measured 24 days after planting.

plants [8] = conditions: U.S. Patent Application Publication No. 2009/0082453; cited from earlier work
plants [9] = conditions: U.S. Patent Application Publication No. 2009/0133166; cited from earlier work
plants [10] = conditions: U.S. Pat. Nos. 8,013,226 and 8,563,839; cited from earlier work
[11] = tested on: non-germinated seeds and resulting plants; conditions: U.S. Pat. No. 8,115,053 to Roberts et al.; treating non-germinated seeds; cited from earlier work
seed germination = conditions: Norastehnia et al., Gen. Appl. Plant Physiology, 2007; cited from earlier work

For `CCCCCC1C(=O)CCC1CC(=O)OC` (centres unmarked) [MDHJ, methyl dihydrojasmonate], the “adverse effect on germination” value (Sugar snap pea seeds; MDHJ concentrations under 1.5 mM) was “not to adversely affect germination”, the “germination benefit from MDHJ exposure” value (Sugar snap pea seeds; in vivo) was “no germination benefit was seen” and the “adverse effects on germination” value ([1]; 15 days after treatment, MDHJ at concentrations below 1.5 mM) was “no adverse effects on germination; also recorded: not to adversely affect germination”. The “germination benefit from MDHJ exposure” value ([1]; in vivo) was “no germination benefit was seen”, the “Percent of Tomato Seeds Germinated, Day 5” value ([2]; 0.05 mM MDHJ) was 87.5% and the “Percent of Tomato Seeds Germinated, Day 7” value ([2]; 0.05 mM MDHJ) was 100%. The “Seed germination percentage” value ([2]; 0.5 mM MDHJ) was “enhanced”, the “Percent of Tomato Seeds Germinated, Day 5” value ([2]; 0.50 mM MDHJ) was 100% and the “Percent of Tomato Seeds Germinated, Day 7” value ([2]; 0.50 mM MDHJ) was 100%. For the same molecule, the “radicle length compared to untreated seeds” value ([2]; 0.5 mM MDHJ, by day 7, FIG. 4) was “increase in radicle length compared to untreated seeds”, the “seed germination percentage compared to the untreated control” value ([3]; 0.05 mM MDHJ) was “increased seed germination percentage” and the “Percent of Wheat Seeds Germinated at Day 7” value (shortened to “Percent … at Day 7”) ([3]; 0.05 mM MDHJ) was 95%. The “coleoptile length” value ([3]; 0.05 mM MDHJ, FIG. 5) was “no decrease in coleoptile length”, the “Percent … at Day 7” value ([3]; 0.50 mM MDHJ) was 53% and the “germination and coleoptile growth” value ([3]; 0.5 mM and above, FIG. 5) was “inhibition of germination and coleoptile growth”. The “Percent … at Day 7” value ([3]; 5.00 mM MDHJ) was 55%, the “coleoptiles and radicles” value ([3]; 5.0 mM treatment) was “too short to measure” and the “rate of seed germination in wheat” value ([3]; concentrations below 0.5 mM, germinating wheat in paper towel) was “beneficial for improved rate of seed germination”. For the same molecule, the “germination” value ([4]; 1.5 mM MDHJ) was “improved”, the “Percent of Seeds Germinated at Day 6, Swiss Chard” value ([4]; 1.5 mM MDHJ) was 77% and the “Percent of Seeds Germinated at Day 6, Swiss Chard” value ([4]; 7.5 mM MDHJ) was 58%. For the same molecule, the “germination” value ([5]; 1.5 mM MDHJ) was “improved”, the “Percent of Seeds Germinated at Day 6, Corn” value ([5]; 1.5 mM MDHJ) was 54% and the “Percent of Seeds Germinated at Day 6, Corn” value ([5]; 7.5 mM MDHJ) was 0.1%. For the same molecule, the “Percent of Seeds Germinated at Day 6, Wheat” value ([6]; 1.5 mM MDHJ) was 100%, the “General Observation, Wheat” value ([6]; 1.5 mM and 7.5 mM MDHJ) was “seedlings were stunted” and the “Percent of Seeds Germinated at Day 6, Wheat” value ([6]; 7.5 mM MDHJ) was 100%. The “Percent Seedling Emergence” value ([7]; 0.75 mM MDHJ) was 63%, the “germination compared to the untreated control” value ([7]; 0.75 mM-treated seed) was “increased germination” and the “Percent Seedling Emergence” value ([7]; 7.50 mM MDHJ) was 50%. The “germination compared to the untreated control” value ([7]; 7.5 mM treated seed) was “no germination inhibition”, the “growth (plant height, words)” value ([7]; FIG. 6, 24 days after planting, 0.75 mM or 7.5 mM) was “did not inhibit growth” and the “biotic attack” value (plants [8]) was “effective in reducing biotic attack and disease in plants; also recorded: surprisingly effective at preventing biotic attack”. The “flowering characteristics” value (plants [9]) was “improves flowering characteristics” and the “chlorosis and necrosis of leaf senescence” value (plants [10]) was “can reduce the chlorosis and necrosis of leaf senescence”.

For `CC/C=C\CC1C(=O)CCC1CC(=O)O` (centres unmarked) [jasmonic acid, 2-(3-oxo-2-(pent-2-enyl)cyclopentyl)acetic acid], the “pest resistance in the resulting plants” value [11] is given as “increases pest resistance in the resulting plants up to 10 weeks after sowing”.

For `CC/C=C\CC1C(=O)CCC1CC(=O)OC` (centres unmarked) [methyl jasmonate], the “seed germination” value (seed germination) is given as “inhibits seed germination” and the “pest resistance in the resulting plants” value [11] is given as “increases pest resistance in the resulting plants up to 10 weeks after sowing”.
